This is an account of results in patent publication US10561655B2 (SYNBLia Therapeutics, Inc., priority 2018, dated 2020).

For one experiment, the target named is Full length SHP2 enzyme (Homo sapiens (Human), UniProt Q06124). Nature of the experiment: SHP2 Phosphatase Assays. The experiment is classed as biochemical. The following applies: full length SHP2 0.1 nM, 1 uM IRS-1 peptide, DiFMUP substrate, room temperature. How it is done:
IC50 values were determined at room temperature in 384-well black polystyrene plate, using a final reaction volume of 15 μl and the following assay buffer conditions: 60 mM Hepes (pH=7.2), 75 mM NaCl, 75 mM KCl, and 1 mM EDTA, 0.05% P-20, 5 mM dithiothreitol (DTT). Full length SHP2 enzyme (diluted to 0.1 nM in reaction buffer) were co-incubated with 1 uM IRS-1 peptide and 0.01 nM to 10 μM compounds of the disclosure for 60 min. The surrogate substrate DiFMUP (5 μL, […]) was added, and incubated at rt for 60 min. The reaction was then quenched by the addition of 5 μL of a 40 μM solution of bpV(Phen). The fluorescence signal was monitored using a microplate reader (Envision, Perkin-Elmer) using excitation and emission wavelengths of 360 nm and 450 nm, respectively. The inhibitor dose-response curves were analyzed using normalized IC50 regression curve fitting with control-based normalization.

The subject of a further experiment is p-ERK/total ERK. Nature of the experiment: p-ERK/total ERK Cellular Assay. The experiment is classed as cell-based. The following applies: p-ERK (AlphaLISA SureFire Ultra) / total ERK (HTRF), 2-6 hours incubation; read-out: IC50. How it is done:
p-ERK/total ERK Cellular Assay
Cells were seeded in 384-well cell culture plate and incubated overnight. Test compounds were added to the cell plate and the plate was incubated for 2-6 hours. To detect p-ERK, the cell plate was used AlphaLISA SureFire Ultra p-ERK kit; to detect total ERK, the cell plate was used total ERK HTRF kit. The plate was read on the Envision.
Background: In Alpha technology, singlet oxygen from a donor bead excites a nearby acceptor bead.

A further experiment relates to cells. Nature of the experiment: Cell Proliferation Assay (CellTiter Glo). In kind it is cell-based. As to conditions: 3-5 days incubation, CellTiter Glo; read-out: IC50. The method, then:
Firstly, the cells were seeded in 384-well cell culture plate and incubate overnight. The test compounds were added to the cell plate and incubated for 3-5 days. The cell plate was then detected using CellTiter Glo reagents.

Full length SHP2 enzyme, sequence (Q06124 whole entry): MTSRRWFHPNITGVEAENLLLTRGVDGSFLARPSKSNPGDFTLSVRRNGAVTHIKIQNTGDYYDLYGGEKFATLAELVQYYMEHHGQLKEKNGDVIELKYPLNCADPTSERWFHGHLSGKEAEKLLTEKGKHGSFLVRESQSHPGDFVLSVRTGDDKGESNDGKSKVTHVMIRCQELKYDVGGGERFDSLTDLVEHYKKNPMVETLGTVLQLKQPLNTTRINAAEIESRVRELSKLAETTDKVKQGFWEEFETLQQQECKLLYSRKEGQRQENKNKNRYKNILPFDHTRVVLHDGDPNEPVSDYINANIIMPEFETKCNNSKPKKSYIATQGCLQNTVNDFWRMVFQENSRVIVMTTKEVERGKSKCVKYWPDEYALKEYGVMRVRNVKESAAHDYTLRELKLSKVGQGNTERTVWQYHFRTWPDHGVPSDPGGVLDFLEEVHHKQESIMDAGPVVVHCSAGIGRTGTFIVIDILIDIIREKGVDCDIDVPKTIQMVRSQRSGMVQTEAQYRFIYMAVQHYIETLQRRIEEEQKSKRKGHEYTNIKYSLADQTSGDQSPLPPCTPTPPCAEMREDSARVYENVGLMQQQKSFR

On to `C[C@@H]1OCC2(CCN(c3ncc(Sc4cccc(F)c4Cl)[nH]c3=O)CC2)[C@@H]1N` [Compound 109, 3-((3S,4S)-4-amino-3-methyl-2-oxa-8-azaspiro[4.5]decan-8-yl)-6-((2-chloro-3-fluorophenyl)thio)pyrazin-2(1H)-one], for which the IC50 against Full length SHP2 enzyme was not above 0.05 µM; with p-ERK/total ERK it was less than 0.1 µM; in the experiment with cells it was less than 5 µM.

Broadly, the IC50 is the point on the concentration scale where inhibition reaches its midpoint.
